Data as given in patent US12502362B2, “Inhibitors of nucleotidyltransferase superfamily enzymes as antibiotics” (priority 2017, dated 2025).
In brackets after ≈: the same amount, converted by molar mass.

Assays:
[1] = system: Staphylococcus hominis; assay: MIC80 on S. hominis; format: cell-based
Method: (§1) To further characterize the compounds, the minimal inhibitory concentration (MIC80) were determined for selected compounds. MIC80 is defined as the compound concentration at which ≥80% bacterial growth is inhibited compare to untreated controls. Meanwhile, for the selected compounds, cytotoxicity assays (CC50) were performed on a HepG2-derived hepatoblastoma cell line (HEPDES19). […] For the MIC80 measurements, a 1.5 fold dilution series of the compounds was prepared in Mueller-Hinton II broth. […] For CC50 evaluation, soluble tetrazolium dye (MTS) was used to measure mitochondrial toxicity in a human hepatoblastoma cell line (18). The bacteria (E. coli, S. saprophyticus and A. baumannii) used in MIC80 measurements were the same as that in the primary screening, but for Staphylococcus, S. aureus is used primarily because it is a common pathogen in Staphylococcaeae family, while S. saprophyticus is part of the normal human flora. S. aureus (ATCC 29213) is methicillin-sensitive Staphylococcus aureus (MSSA) strain and it was used as a model strain to measure the MIC80.
(§2) It was also tested whether compounds #63 and #285 can inhibit other coagulase-negative Staphylococcus (CNS) including S. epidermidis, S. hominis, etc. […] .

[2] = system: S. aureus ATCC strains and methicillin-resistant Staphylococcus aureus (MRSA); assay: MIC80 on S. aureus ATCC strains and MRSA; format: cell-based
Method: (§3) To further characterize the compounds, the minimal inhibitory concentration (MIC80) were determined for selected compounds. MIC80 is defined as the compound concentration at which ≥80% bacterial growth is inhibited compare to untreated controls. Meanwhile, for the selected compounds, cytotoxicity assays (CC50) were performed on a HepG2-derived hepatoblastoma cell line (HEPDES19). […] For CC50 evaluation, soluble tetrazolium dye (MTS) was used to measure mitochondrial toxicity in a human hepatoblastoma cell line (18). The bacteria (E. coli, S. saprophyticus and A. baumannii) used in MIC80 measurements were the same as that in the primary screening, but for Staphylococcus, S. aureus is used primarily because it is a common pathogen in Staphylococcaeae family, while S. saprophyticus is part of the normal human flora.

[3] = system: Coagulase negative Staphylococcus; assay: MIC80 on coagulase negative Staphylococcus; format: cell-based
Method: as §1, §2

[4] = system: HepG2-derived hepatoblastoma cell line (HEPDES19); assay: Cytotoxicity assay (CC50), MTS; format: cell-based, human; settings: HEPDES19 cells
Method: as §3

[5] = Cytotoxicity assay (CC50), MTS; format: cell-based, human; settings: human, HepG2-derived hepatoblastoma cell line (HEPDES19), HEPDES19 cells
Method: as §3

[6] = system: E. coli (ATCC 35218); assay: microbe, parasite or virus in culture; format: cell-based; settings: for MIC80: Escherichia coli, ATCC35218, read-out: MIC80 E. coli, E. coli ATCC 35218; for MIC80 E. coli: E. coli ATCC 35218
Method: as §3

[7] = system: Acinetobacter baumannii (Abl, from a patient); assay: microbe, parasite or virus in culture; format: cell-based
Method: as §3

[8] = system: S. aureus and/or S. saprophyticus; assay: MIC80 on S. aureus and/or S. saprophyticus; format: cell-based; settings: read-out: MIC80 against S. aureus and/or S. saprophyticus
Method: as §1

[9] = system: Staphylococcus epidermidis; assay: MIC80 on S. epidermidis; format: cell-based
Method: as §1, §2

[10] = system: S. aureus (ATCC 29213); assay: MIC80 on S. aureus; format: cell-based, Staphylococcus aureus; settings: Staphylococcus aureus, ATCC 29213 / MSSA, read-out: MIC80 S. aureus, S. aureus ATCC 29213 (MSSA); ≥80% growth inhibition
Method: as §3

[11] = system: MDR Enterobacteriaceae; assay: organism not typed; format: cell-based
Method: as §3
(§4) All these MDR-bacteria are at least resistant to two classes of the antibiotics among five groups and/or specific antibiotics including quinolones/fluorquinolones, carbapenems, cephalosporins, aminoglycosides and piperacillin-tazobactam.

[12] = system: Klebsiella pneumoniae; assay: microbe, parasite or virus in culture; format: cell-based
Method: as §3, §4

[13] = system: MDR E. coli; assay: microbe, parasite or virus in culture; format: cell-based
Method: as §3, §4

[14] = system: Morganella morganii; assay: microbe, parasite or virus in culture; format: cell-based
Method: as §3, §4

[15] = system: Citrobacter koseri; assay: microbe, parasite or virus in culture; format: cell-based
Method: as §3, §4

[16] = system: Enterobacter cloacae complex; assay: microbe, parasite or virus in culture; format: cell-based
Method: as §3, §4

With COc1ccccc1C(=O)Oc1cccccc1=O [Compound 285] the MIC80 ([1]; Sh1 (Staphylococcus hominis)) was 9.9 µM (≈ 2.54 µg/mL), the MIC80 ([1]; Sh2 (Staphylococcus hominis)) was 9.9 µM (≈ 2.54 µg/mL) and the MIC80 ([1]; Sh3 (Staphylococcus hominis)) was 6.6 µM (≈ 1.69 µg/mL). For the same compound, the MIC80 ([2]; ATCC 25923 / MRSA, S. aureus ATCC 25923) was 8.8 µM (≈ 2.26 µg/mL), the MIC80 ([2]; ATCC 29213 / MRSA, S. aureus ATCC 29213 (Table 3)) was 8.8 µM (≈ 2.26 µg/mL) and the MIC80 ([2]; BAA-976 / MRSA, S. aureus ATCC BAA 976) was 8.8 µM (≈ 2.26 µg/mL). The MIC80 ([2]; BAA-977 / MRSA, S. aureus ATCC BAA 977) was 8.8 µM (≈ 2.26 µg/mL), the MIC80 ([2]; MRSA, Sa1 (MRSA)) was 8.8 µM (≈ 2.26 µg/mL) and the MIC80 ([2]; MRSA, Sa2 (MRSA)) was 8.8 µM (≈ 2.26 µg/mL). The MIC80 ([2]; MRSA, Sa3 (MRSA)) was 8.8 µM (≈ 2.26 µg/mL), the MIC80 ([2]; MRSA, Sa5 (MRSA)) was 8.8 µM (≈ 2.26 µg/mL) and the MIC80 ([2]; MRSA, Sa6 (MRSA)) was 8.8 µM (≈ 2.26 µg/mL). For the same compound, the MIC80 ([2]; MRSA, Sa7 (MRSA)) was 8.8 µM (≈ 2.26 µg/mL), the MIC80 ([2]; MRSA, Sa8 (MRSA)) was 8.8 µM (≈ 2.26 µg/mL) and the MIC80 ([2]; MRSA, Sa9 (MRSA)) was 8.8 µM (≈ 2.26 µg/mL). It also gave an MIC80 ([2]; MRSA, Sa10 (MRSA)) of 8.8 µM (≈ 2.26 µg/mL), an MIC80 ([2]; MRSA, Sa11 (MRSA)) of 8.8 µM (≈ 2.26 µg/mL) and an MIC80 ([2]; MRSA, Sa12 (MRSA)) of 8.8 µM (≈ 2.26 µg/mL). The MIC80 ([2]; MRSA, Sa14 (MRSA)) was 8.8 µM (≈ 2.26 µg/mL), the MIC80 ([2]; MRSA, Sa15 (MRSA)) was 5.9 µM (≈ 1.51 µg/mL) and the MIC80 ([2]; MRSA, Sa16 (MRSA)) was 8.8 µM (≈ 2.26 µg/mL). The MIC80 ([2]; MRSA, Sa17 (MRSA)) was 8.8 µM (≈ 2.26 µg/mL), the MIC80 ([2]; MRSA, Sa18 (MRSA)) was 8.8 µM (≈ 2.26 µg/mL) and the MIC80 ([2]; MRSA, Sa19 (MRSA)) was 8.8 µM (≈ 2.26 µg/mL). For the same compound, the MIC80 ([2]; MRSA, Sa20 (MRSA)) was 13.2 µM (≈ 3.38 µg/mL), the MIC80 ([2]; MRSA, Sa21 (MRSA)) was 5.9 µM (≈ 1.51 µg/mL) and the MIC80 ([2]; MRSA, Sa22 (MRSA)) was 5.9 µM (≈ 1.51 µg/mL). For the same compound, the MIC80 ([2]; MRSA, Sa23 (MRSA)) was 8.8 µM (≈ 2.26 µg/mL), the MIC80 ([3]; CNS1 (Coagulase negative Staphylococcus)) was 9.9 µM (≈ 2.54 µg/mL) and the MIC80 ([3]; CNS2 (Coagulase negative Staphylococcus)) was 6.6 µM (≈ 1.69 µg/mL). It also gave a CC50 [4] of no less than 100 µM, a CC50 [5] greater than 50 µM and an MIC80 [6] of 100 µM (≈ 25.6 µg/mL). For the same compound, the MIC80 ([7]; Acinetobacter baumannii, read-out: MIC80 A. baumannii, A. baumannii Ab1, MDR patient isolate) was 44.4 µM (≈ 11.4 µg/mL), the MIC80 [8] was less than 20 µM and the MIC80 ([9]; Se1 (Staphylococcus epidermidis)) was 8.8 µM (≈ 2.26 µg/mL). For the same compound, the MIC80 ([9]; Se2 (Staphylococcus epidermidis)) was 6.6 µM (≈ 1.69 µg/mL), the MIC80 ([9]; Se3 (Staphylococcus epidermidis)) was 6.6 µM (≈ 1.69 µg/mL) and the MIC80 ([9]; Se4 (Staphylococcus epidermidis)) was 9.9 µM (≈ 2.54 µg/mL). The MIC80 ([9]; Se5 (Staphylococcus epidermidis)) was 9.9 µM (≈ 2.54 µg/mL) and the MIC80 [10] was 10.3 µM (≈ 2.64 µg/mL).

In the case of CCn1cc(C(=O)O)c(=O)c2cnc(N3CCN(C(=O)NC)CC3)nc21 [Compound 322], the “inhibition of MDR Enterobacteriaceae (in words)” value ([11]; except one MDR E. coli and one Enterobacter cloacae complex strain) is reported as “No obvious inhibition”, the MIC80 ([12]; Kp1 (Klebsiella pneumonia)) is reported as greater than 100 µM and the MIC80 ([12]; Kp6 (Klebsiella pneumonia)) is reported as greater than 100 µM. For the same compound, the MIC80 ([13]; Ec1 (MDR E. coli)) was greater than 100 µM, the MIC80 ([13]; Ec2 (MDR E. coli)) was 66.7 µM (≈ 24 µg/mL) and the MIC80 ([13]; Ec3 (MDR E. coli)) was greater than 100 µM. The MIC80 ([13]; Ec4 (MDR E. coli)) was greater than 100 µM, the MIC80 ([13]; Ec5 (MDR E. coli)) was greater than 100 µM and the MIC80 ([13]; one MDR E. coli) was 44.4 µM (≈ 16 µg/mL). It also gave an MIC80 ([14]; Mm1 (Morganella morganii)) greater than 100 µM, an MIC80 ([15]; Ck1 (Citrobacter koseri)) greater than 100 µM and an MIC80 ([16]; Ecc1 (Enterobacter cloacae complex)) of 44.4 µM (≈ 16 µg/mL). For the same compound, the MIC80 ([16]; one Enterobacter cloacae complex strain) was 66.7 µM (≈ 24 µg/mL), the CC50 [4] was no less than 100 µM and the “inhibition of E. coli (in words)” value [6] was “only modestly inhibited”. The “MIC80 E. coli” value [6] was 29.6 µM (≈ 10.7 µg/mL) and the “MIC80 A. baumannii” value ([7]; A. baumannii Ab1, MDR patient isolate) was greater than 100 µM.

O=C(Sc1cccccc1=O)c1ccccc1 [Compound 364] showed an MIC80 ([11]; read-out: MIC80 on MDR Enterobacteriaceae) of no more than 20 µM, an MIC80 ([12]; Klebsiella pneumoniae, Kp1 (Klebsiella pneumonia)) greater than 33.3 µM and an MIC80 ([12]; Klebsiella pneumoniae, Kp6 (Klebsiella pneumonia)) greater than 33.3 µM. The MIC80 ([13]; Escherichia coli, Ec1 (MDR E. coli)) was 33.3 µM (≈ 8.07 µg/mL), the MIC80 ([13]; Escherichia coli, Ec2 (MDR E. coli)) was 14.8 µM (≈ 3.59 µg/mL) and the MIC80 ([13]; Escherichia coli, Ec3 (MDR E. coli)) was 22.2 µM (≈ 5.38 µg/mL). For the same compound, the MIC80 ([13]; Escherichia coli, Ec4 (MDR E. coli)) was 33.3 µM (≈ 8.07 µg/mL), the MIC80 ([14]; Morganella morganii) was greater than 33.3 µM and the MIC80 ([15]; Citrobacter koseri) was 33.3 µM (≈ 8.07 µg/mL). The MIC80 ([16]; Enterobacter cloacae) was 33.3 µM (≈ 8.07 µg/mL), the CC50 [4] was 67 µM and the CC50 [5] was greater than 50 µM. The “MIC80 E. coli” value [6] was 19.8 µM (≈ 4.8 µg/mL), the MIC80 [6] was less than 30 µM and the MIC80 [8] was less than 20 µM. The MIC80 [10] was 13.2 µM (≈ 3.2 µg/mL).
